Results taken from patent US6861391B1, “Trifluoromethyl-substituted spirocyclic ketoenols” (Bayer Aktiengesellschaft, priority 1999, dated 2005).

Key:
Myzus persicae = assay: Critical concentration test/root-systemic action; assay type: in vivo; details: 1.25 ppm in soil; root-systemic, broad beans; populated after 7 days, evaluated after a further 8 days
Method: Critical concentration test/root-systemic action Test insect: Myzus persicae Solvent: 4 parts by weight of acetone Emulsifier: 1 part by weight of alkylaryl polyglycol ether To produce a suitable preparation of active compound, 1 part by weight of active compound is mixed with the stated amount of solvent, the stated amount of emulsifier is added and the concentrate is diluted with water to the desired concentration. The preparation of active compound is mixed intimately with the soil. The concentration of the active compound in the preparation is virtually immaterial, only the amount by weight of active compound per volume unit of soil, which is stated in ppm […], being decisive. The treated soil is filled into 250 ml pots and pregerminated broad beans are planted in these. Thus, the active compound can be taken up by the plant roots from the soil and then transported into the leaves. To assess the root-systemic effect, the plants are populated with the above-mentioned test animals after 7 days. After a further 8 days, evaluation is carried out by counting or estimating the number of dead animals. The root-systemic action of the active compound is derived from the number of animals killed. It is 100% if all test animals have been killed and 0% when the number of test insects that are still alive is the same as for the untreated control.

[1] = system: peach aphids (Myzus persicae); assay: Myzus test (cabbage leaf dip); assay type: in vivo; details: cabbage leaves dipped
Method: Myzus test Solvent: 7 parts by weight of dimethylformamide Emulsifier: 1 part by weight of alkylaryl polyglycol ether To produce a suitable preparation of active compound, 1 part by weight of active compound is mixed with the stated amounts of solvent and emulsifier, and the concentrate is diluted with emulsifier-containing water to the desired concentration. Cabbage leaves (Brassica oleracea) which are heavily infested by peach aphids (Myzus persicae) are treated by being dipped into the preparation of active compound of the desired concentration. After the desired period of time, the kill in % is determined. 100% means that all aphids have been killed; 0% means that none of the aphids have been killed.

[2] = system: larvae of the mustard beetle (Phaedon cochleariae); assay: Phaedon larvae test (cabbage leaf dip); assay type: in vivo; details: 100 ppm active compound, cabbage leaves dipped
Method: Phaedon larvae test Solvent: 7 parts by weight of dimethylformamide Emulsifier: 1 part by weight of alkylaryl polyglycol ether To produce a suitable preparation of active compound, 1 part by weight of active compound is mixed with the stated amounts of solvent and emulsifier, and the concentrate is diluted with emulsifier-containing water to the desired concentration. Cabbage leaves (Brassica oleracea) are treated by being dipped into the preparation of active compound of the desired concentration and are populated with larvae of the mustard beetle (Phaedon cochleariae) while the leaves are still moist. After the desired period of time, the kill in % is determined. 100% means that all beetle larvae have been killed; 0% means that none of the beetle larvae have been killed.

Meloidogyne incognita = assay: Meloidogyne test (gall formation on lettuce roots); assay type: in vivo; details: 20 ppm active compound, nematicidal action by gall formation on lettuce
Method: Meloidogyne test Solvent: 7 parts by weight of dimethylformamide Emulsifier. 1 part by weight of alkylaryl polyglycol ether To produce a suitable preparation of active compound, 1 part by weight of active compound is mixed with the stated amounts of solvent and emulsifier, and the concentrate is diluted with water to the desired concentration. Vessels are filled with sand, solution of active compound, Meloidogyne incognita egg/larvae suspension and lettuce seeds. The lettuce seeds germinate and the plants develop. On the roots, galls develop. After the desired period of time, the nematicidal action is determined in % by the formation of galls. 100% means that no galls have been found; 0% means that the number of galls on the treated plants corresponds to that of the untreated control.

Row | SMILES | melting point [°C] | Kill rate in % after 6 d ([1]; 1000 ppm active compound) [%] | further results
1 | Cc1cc(C)c(C2=C(O)C3(CCC(C(F)(F)F)CC3)NC2=O)c(C)c1 (stereo not shown) [Example I-1-a-1] | – | – | Kill rate in % at active compound concentrations in ppm (Myzus persicae): 1.25 ppm = 100%
2 | Cc1cc(C)c(C2=C(OC(=O)C(C)C)C3(CCC(C(F)(F)F)CC3)NC2=O)c(C)c1 (stereo not shown) [Example I-1-b-1] | – | 95 | Kill rate in % after 7 d [2]: 100%
3 | CCOC(=O)OC1=C(c2c(C)cc(C)cc2C)C(=O)NC12CCC(C(F)(F)F)CC2 (stereo not shown) [Example I-1-c-1] | – | 100 | –
4 | Cc1ccc(C)c(C2=C(O)C3(CCC(C(F)(F)F)CC3)OC2=O)c1 (stereo not shown) [Example I-2-a-1] | – | – | Kill rate in % after 7 d (Meloidogyne incognita): 90%
5 | Cc1cc(C)c(C2=C(O)C3(CCC(C(F)(F)F)CC3)OC2=O)c(C)c1C (stereo not shown) [Example I-2-a-3] | 159 to 161 | – | –

Continued, in another order:

Row | melting point [°C] | SMILES | Kill rate in % after 6 d ([1]; 1000 ppm active compound) [%] | further results
6 | 245 | Cc1ccc(C)c(C2=C(O)C3(CCC(C(F)(F)F)CC3)NC2=O)c1 (stereo not shown) [Example I-1-a-2] | – | –
7 | 175 | Cc1cc(C)c(C2=C(O)C3(CCC(C(F)(F)F)CC3)NC2=O)cc1C (stereo not shown) [Example I-1-a-3] | 80 | –
8 | > 250 | Cc1cc(Cl)c(C2=C(O)C3(CCC(C(F)(F)F)CC3)NC2=O)c(Cl)c1 (stereo not shown) [Example I-1-a-4] | – | –
9 | > 250 | Cc1cc(C)c(C2=C(O)C3(CCC(C(F)(F)F)CC3)NC2=O)c(C)c1C (stereo not shown) [Example I-1-a-5] | – | Kill rate in % after 6 d ([1]; 100 ppm active compound): 100%
10 | > 248 | Cc1cc(Cl)cc(C)c1C1=C(O)C2(CCC(C(F)(F)F)CC2)NC1=O (stereo not shown) [Example I-1-a-6] | – | –
11 | 212 | Cc1ccc(Br)c(C2=C(O)C3(CCC(C(F)(F)F)CC3)NC2=O)c1 (stereo not shown) [Example I-1-a-7] | – | –
12 | 212 to 214 | Cc1cc(C)c(C2=C(O)C3(CCC(C(F)(F)F)CC3)OC2=O)cc1C (stereo not shown) [Example I-2-a-2] | 100 | –
